Measurements from patent US6890533B2, “Betulinol derivatives” (Cornell Research Foundation, Inc., priority 1997, dated 2005).

Tests used:
[1] = BBA solubility in organic solvents; format: physicochemical; conditions: for BBA Mass Content, %, at 20° C.: mass % in organic solvent
Experimental: Studies of betulinol biacetate solubility were conducted in order to determine the appropriate solvent for product crystallization and purification.

[2] = tested on: WALKER-CARCINOMA (carcinosarcoma); assay: anti-carcinogenic activity in rats implanted with Walker carcinoma; format: in vivo, white rats; conditions: for ALL, % of control / ALL (Average length of life) / % cured: rats; for ALL (Average length of life): injected daily for 5 days; for % cured: cured rats lived over two months after implantation
Experimental: The anti-carcinogenic activity of betulinol biacetate and betulonic aldehyde was assessed using 117-120 gram white rats implanted with worker's carcinoma and 21-23 gram white mice with artificially transplanted Ehrlich's tumor.
Solutions of 2.5% betulonic aldehyde and 0.05% betulinol biacetate were prepared in 10% polyvinylpyrrolidone containing Tween-80 (a sorbitan mono-9-octadecenate poly(oxy-1,2-ethanediyl)) stabilizer.
Mice were injected with 0.1-0.2 ml of either betulinol biacetate or betulonic aldehyde solution daily, starting 24 hours after transplantation, for the following 5 days. Rats were injected with 1.2 ml of either betulinol biacetate or betulonic aldehyde solution daily, starting 24 hours after implantation, for the following 5 days. Animals in control groups received the same amount of a 10% solution of polyvinylpyrrolidone.
The anti-tumor effect of betulinol acetate or betulonic aldehyde was determined by measuring the volume of the tumor on the 10th day after implantation. An average length of life (“ALL”) was calculated for each of the deceased animals. In addition, the percentage of cured rats was also determined.
The volume of the tumor was measured and calculated as a multiple of the quadrate of its similar diameter by the greater diameter. Thus, the effect was expressed as a ratio (“E/C”), in percent, of the tumor volume in rats treated with betulinol acetate or betulonic aldehyde (“E”) and the tumor volume in control rats (“C”). The effect of betulinol acetate or betulonic aldehyde on ALL was evaluated the same way.

[3] = Group 1, Dose/day 204.6 (mg/kg body weight)
[4] = Group 2, Dose/day 106.9 (mg/kg body weight)

Compound: C=C(C)[C@@H]1CC[C@]2(COC(C)=O)CC[C@]3(C)[C@H](CC[C@@H]4[C@@]5(C)CC[C@H](OC(C)=O)C(C)(C)[C@@H]5CC[C@]43C)[C@@H]12 [Betulinol diacetate, Betulinol Biacetate]
- BBA Mass Content, %, at 20° C. ([1]; Benzene): 100%
- BBA Mass Content, %, at T (° C.) ([1]; Butanol, T 95 ° C.): 100%
- BBA Mass Content, %, at 20° C. ([1]; Chloroform): 100%
- BBA Mass Content, %, at 20° C. ([1]; Dimethylsulfoxide): 30%
- BBA Mass Content, %, at T (° C.) ([1]; Dimethylsulfoxide, T 189 ° C.): 100%
- BBA Mass Content, %, at T (° C.) ([1]; Dioxane, T 101 ° C.): 100%
- BBA Mass Content, %, at 20° C. ([1]; Hexane): 15%
- BBA Mass Content, %, at 20° C. ([1]; Toluene): 100%
- ALL, % of control [2, 3]: 131.3%
- ALL (Average length of life) [2, 3]: 28.5 days
- % cured [2, 3]: 50.0%
- ALL, % of control [2, 4]: 200.5%
- ALL (Average length of life) [2, 4]: 43.5 days
- % cured [2, 4]: 67.0%
- rate of the tumor growth inhibited, of the control group ([2]; tumor volume on the 10th day, versus control group): 55.2%
